From patent publication US20230382909A1, “BICYCLIC COMPOUNDS” (Aligos Therapeutics, Inc., priority 2022, published 2023) come the findings set out here.

The test system of one series is HBV. Nature of the series: HBV-DNA antiviral assay using HepG2.117 cells. The series is classed as cell-based, HBV genotype D. Particulars: Hepatitis B virus, HepG2.117, 72 h. The procedure:
(§1) The following assay procedure describes the HBV antiviral assay, using HepG2.117 cells, which carry a stably integrated genotype D HBV genome under the control of a Tet-off promoter, and intracellular HBV DNA quantification as endpoint. Cell viability is assessed in parallel by measuring the intracellular ATP content using CellTiter-Glo 2.0 (Promega).
On day 0, HepG2.117 cells (which are maintained in routine cell culture with doxycycline present in the medium at a final concentration of 1 μg/mL) are seeded in 96-well plates (white with clear bottom) at a density of 2.0×10^4 cells/well (0.1 mL/well) in medium without doxycycline to induce pgRNA transcription and subsequent formation of HBV particles. The cells are incubated at 37° C. and 5% CO2.
(§2) On day 1, medium is removed from each well, the test articles are diluted in culture medium without doxcycyline and 100 μL was added to cell culture wells (9 concentrations, 4-fold dilution). For each plate, 6 untreated (merely DMSO) wells are included. The final concentration of DMSO in the culture medium is 2%. Each plate is prepared in duplicate (one for HBV DNA extraction, one for CellTiter-Glo 2.0 measurement). The cells are incubated at 37° C. and 5% CO2 for 3 days.
(§3) On day 4, cell viability is assessed using CellTiter-Glo 2.0 and cell lysates are prepared for HBV DNA extraction and subsequent quantification by qPCR.
HBV DNA Quantification by qPCR
Medium is removed from each well and 100 μL of 0.33% NP-40 in H2O was added to each well. Plates are sealed, incubated at 4° C. for 5 mins, vortexed extensively and centrifuged briefly. Next, 35 μL of lysate is added to 65 μL QuickExtract DNA Extraction Solution (Epicentre) in a PCR plate for each well. PCR plate is incubated at 65° C. for 6 mins, 98° C. for 2 mins and finally cooled to 4° C. HBV DNA is then quantified by qPCR with HBV-specific primers and probes as specified in Table 3 using the Bio-Rad SSOAdvanced Universal Probes Supermix on a CFX96 machine (Bio-Rad). The PCR cycle program consisted of 95° C. for 3 mins, followed by 40 cycles at 95° C. for 10 sec and 60° C. for 30 sec.
A DNA standard is prepared by dilution of an IDT gBlock corresponding to the amplicon with concentrations ranging from 10^2 to 10^8 copies/input (i.e., per 4 μL) and used to generate a standard curve by plotting Cq values vs. HBV DNA standard concentration. The quantity of HBV DNA in each sample is determined by interpolating from the standard curve.
(§4) Cell viability is calculated as follows: % Cell viability=(luminescence value of test sample)/(average luminescence value of 2% DMSO control)×100%. HBV DNA inhibition was calculated as follows: 100−(HBV DNA copy number of test sample)/(average HBV DNA copy number of 2% DMSO control)×100%. No normalization to entecavir is required due to the excellent dynamic window of this assay. The CC50, EC50 and EC9o values were determined by dose-response curves fitted using non-linear regression.

Series [1] can be described thus: Cell viability by CellTiter-Glo 2.0 (intracellular ATP content) in HepG2.117 cells. Format: cell-based. The settings on record: human, CellTiter-Glo 2.0, 3 days incubation. The procedure: as §1, §2, §3
Using the other plates, the cell viability is quantified by CellTiter-Glo 2.0 according to the manufacturer's manual. In brief, 100 μL of reagent solution is added to the culture plates and shaken for 2′. The plates are incubated at rt for 10 min and luminescence signal is subsequently measured on a VarioSkan Lux (ThermoFisher) plate reader.
as §4
Background: Cellular ATP, detected with luciferase, serves as a proxy for viable cell number.

Molecules are shown by their SMILES. Structures can show the parent of a compound that is named as a salt.

The compound `Cc1cc(C)n(-c2nc3c(c(=O)n2-c2ccc(NC[C@H](O)CO)nc2)C[C@@H](C)N(C(=O)c2ccc(Br)c(C(F)(F)F)c2)C3)n1` [Compound 31, (6R)-7-[4-bromo-3-(trifluoromethyl)benzoyl]-3-[6-[[(2S)-2,3-dihydroxypropyl]amino]-3-pyridyl]-2-(3,5-dimethylpyrazol-1-yl)-6-methyl-6,8-dihydro-5H-pyrido[3,4-d]pyrimidin-4-one] showed an EC50 in the series on HBV of 50 to 500 nM. Moreover, in series [1], the CC50 at 3 days was > 500 nM.

Consider `Cc1cc(C)n(-c2nc3c(c(=O)n2-c2ccc(OC[C@H](C)O)cc2)C[C@@H](C)N(C(=O)c2ccc(Br)c(C(F)(F)F)c2)C3)n1` [Compound 15, (6R)-7-[4-bromo-3-(trifluoromethyl)benzoyl]-2-(3,5-dimethylpyrazol-1-yl)-3-[4-[(2S)-2-hydroxypropoxy]phenyl]-6-methyl-6,8-dihydro-5H-pyrido[3,4-d]pyrimidin-4-one], for which the EC50 in the series on HBV was < 50 nM. Moreover, the CC50 at 3 days in series [1] was > 500 nM.

For `Cc1cc(C)n(-c2nc3c(c(=O)n2-c2ccc(OC[C@H](C)O)nc2)C[C@@H](C)N(C(=O)c2ccc(Br)c(C(F)(F)F)c2)C3)n1` [Compound 28, (6R)-7-[4-bromo-3-(trifluoromethyl)benzoyl]-2-(3,5-dimethylpyrazol-1-yl)-3-[6-[(2S)-2-hydroxypropoxy]-3-pyridyl]-6-methyl-6,8-dihydro-5H-pyrido[3,4-d]pyrimidin-4-one], the EC50 in the series with HBV was < 50 nM. In series [1], the CC50 at 3 days is > 500 nM.

In the case of `CNC(=O)c1ccc(-n2c(-n3nc(C)cc3C)nc3c(c2=O)C[C@@H](C)N(C(=O)c2ccc(Br)c(C(F)(F)F)c2)C3)cc1N` [Compound 24, 2-amino-4-[(6R)-7-[4-bromo-3-(trifluoromethyl)benzoyl]-2-(3,5-dimethylpyrazol-1-yl)-6-methyl-4-oxo-6,8-dihydro-5H-pyrido[3,4-d]pyrimidin-3-yl]-N-methyl-benzamide], the EC50 with HBV is < 50 nM. Besides, the CC50 at 3 days in series [1] was > 500 nM.

As to `Cc1cc(C)n(-c2nc3c(c(=O)n2-c2ccc(OC[C@@H](C)O)cc2)C[C@@H](C)N(C(=O)c2ccc(Br)c(C(F)(F)F)c2)C3)n1` [Compound 14, (6R)-7-[4-bromo-3-(trifluoromethyl)benzoyl]-2-(3,5-dimethylpyrazol-1-yl)-3-[4-[(2R)-2-hydroxypropoxy]phenyl]-6-methyl-6,8-dihydro-5H-pyrido[3,4-d]pyrimidin-4-one], the EC50 in the series on HBV is < 50 nM. For the same compound, in series [1], the CC50 at 3 days was > 500 nM.

For the compound `Cc1cc(C)n(-c2nc3c(c(=O)n2-c2ccc(O[C@H]4C[C@H](O)C4)cc2)C[C@@H](C)N(C(=O)c2ccc(Br)c(C(F)(F)F)c2)C3)n1` [Compound 38, (R)-7-(4-bromo-3-(trifluoromethyl)benzoyl)-2-(3,5-dimethyl-1H-pyrazol-1-yl)-3-(4-((1r,3R)-3-hydroxycyclobutoxy)phenyl)-6-methyl-5,6,7,8-tetrahydropyrido[3,4-d]pyrimidin-4(3H)-one], the half-maximal effective concentration (EC50) with HBV was < 50 nM. Moreover, the CC50 at 3 days in series [1] was > 500 nM.

For `Cc1cc(C)n(-c2nc3c(c(=O)n2-c2ccc(N[C@H]4C[C@H](O)C4)nc2)C[C@@H](C)N(C(=O)c2ccc(Br)c(C(F)(F)F)c2)C3)n1` [Compound 36, (R)-7-(4-bromo-3-(trifluoromethyl)benzoyl)-2-(3,5-dimethyl-1H-pyrazol-1-yl)-3-(6-(((1r,3R)-3-hydroxycyclobutyl)amino)pyridin-3-yl)-6-methyl-5,6,7,8-tetrahydropyrido[3,4-d]pyrimidin-4(3H)-one], the EC50 in the series on HBV was < 50 nM. Also, the CC50 at 3 days in series [1] was > 500 nM.

Consider `Cc1cc(C)n(-c2nc3c(c(=O)n2-c2cc(C)c4c(c2)ncn4C)C[C@@H](C)N(C(=O)c2ccc(Br)c(C(F)(F)F)c2)C3)n1` [Compound 26, (6R)-7-[4-bromo-3-(trifluoromethyl)benzoyl]-3-(1,7-dimethylbenzimidazol-5-yl)-2-(3,5-dimethylpyrazol-1-yl)-6-methyl-6,8-dihydro-5H-pyrido[3,4-d]pyrimidin-4-one], for which the EC50 with HBV is < 50 nM. The CC50 at 3 days in series [1] is > 500 nM.

In the case of `Cc1cc(C)n(-c2nc3c(c(=O)n2-c2ccc4c(c2)ncn4C)C[C@@H](C)N(C(=O)c2ccc(Br)c(C(F)(F)F)c2)C3)n1` [Compound 1, (R)-7-(4-bromo-3-(trifluoromethyl)benzoyl)-2-(3,5-dimethyl-1H-pyrazol-1-yl)-6-methyl-3-(1-methyl-1H-benzo[d]imidazol-5-yl)-5,6,7,8-tetrahydropyrido[3,4-d]pyrimidin-4(3H)-one], the EC50 in the series on HBV was < 50 nM. Besides, the CC50 at 3 days in series [1] was > 500 nM.

In the case of `Cc1cc(C)n(-c2nc3c(c(=O)n2-c2ccc(N4CCNCC4)nc2)C[C@@H](C)N(C(=O)c2ccc(Br)c(C(F)(F)F)c2)C3)n1` [Compound 10, (R)-7-(4-bromo-3-(trifluoromethyl)benzoyl)-2-(3,5-dimethyl-1H-pyrazol-1-yl)-6-methyl-3-(6-(piperazin-1-yl)pyridin-3-yl)-5,6,7,8-tetrahydropyrido[3,4-d]pyrimidin-4(3H)-one hydrochloride], in the series on HBV, the EC50 was < 50 nM. The CC50 at 3 days in series [1] was > 500 nM.

`Cc1cc(C)n(-c2nc3c(c(=O)n2-c2ccc4c(cnn4C)c2)C[C@@H](C)N(C(=O)c2ccc(Br)c(C(F)(F)F)c2)C3)n1` [Compound 13, (6R)-7-[4-bromo-3-(trifluoromethyl)benzoyl]-2-(3,5-dimethylpyrazol-1-yl)-6-methyl-3-(1-methylindazol-5-yl)-6,8-dihydro-5H-pyrido[3,4-d]pyrimidin-4-one]: in the series on HBV, the EC50 was < 50 nM. Also, the CC50 at 3 days in series [1] was > 500 nM.

`Cc1cc(C)n(-c2nc3c(c(=O)n2-c2ccc(OC[C@H](O)CO)cc2)C[C@@H](C)N(C(=O)c2ccc(Br)c(C(F)(F)F)c2)C3)n1` [Compound 7, (R)-7-(4-bromo-3-(trifluoromethyl)benzoyl)-3-(4-((R)-2,3-dihydroxypropoxy)phenyl)-2-(3,5-dimethyl-1H-pyrazol-1-yl)-6-methyl-5,6,7,8-tetrahydropyrido[3,4-d]pyrimidin-4(3H)-one]: the EC50 in the series with HBV was < 50 nM. Further, in series [1], the CC50 at 3 days was > 500 nM.

In the case of `Cc1cc(C)n(-c2nc3c(c(=O)n2-c2cc(Cl)c4c(c2)ncn4C)C[C@@H](C)N(C(=O)c2ccc(Br)c(C(F)(F)F)c2)C3)n1` [Compound 17, (6R)-7-[4-bromo-3-(trifluoromethyl)benzoyl]-3-(7-chloro-1-methyl-benzimidazol-5-yl)-2-(3,5-dimethylpyrazol-1-yl)-6-methyl-6,8-dihydro-5H-pyrido[3,4-d]pyrimidin-4-one], the EC50 in the series on HBV was < 50 nM. The CC50 at 3 days in series [1] was > 500 nM.

In the case of `Cc1cc(C)n(-c2nc3c(c(=O)n2-c2ccc4c(ncn4C)n2)C[C@@H](C)N(C(=O)c2ccc(Br)c(C(F)(F)F)c2)C3)n1` [Compound 3, (R)-7-(4-bromo-3-(trifluoromethyl)benzoyl)-2-(3,5-dimethyl-1H-pyrazol-1-yl)-6-methyl-3-(1-methyl-1H-imidazo[4,5-b]pyridin-5-yl)-5,6,7,8-tetrahydropyrido[3,4-d]pyrimidin-4(3H)-one], the EC50 in the series on HBV is < 50 nM. For the same compound, in series [1], the CC50 at 3 days is > 500 nM.

As for `Cc1cc(C)n(-c2nc3c(c(=O)n2-c2ccc4c(c2)ncn4CC(F)F)C[C@@H](C)N(C(=O)c2ccc(Br)c(C(F)(F)F)c2)C3)n1` [Compound 23, (6R)-7-[4-bromo-3-(trifluoromethyl)benzoyl]-3-[1-(2,2-difluoroethyl)benzimidazol-5-yl]-2-(3,5-dimethylpyrazol-1-yl)-6-methyl-6,8-dihydro-5H-pyrido[3,4-d]pyrimidin-4-one], the EC50 in the series with HBV was < 50 nM. Also, the CC50 at 3 days in series [1] is > 500 nM.

The EC50 is the midpoint of the concentration-response curve. One may read the CC50 as the concentration giving 50% cytotoxicity. Read a high CC50 as better tolerance by the cells.
